# Assay results as given in ChEMBL document CHEMBL5042543, “Bridged Piperidine Analogues of a High Affinity Naphthalene-Based P2Y14R Antagonist” (J Med Chem, 2022).
# Key:
# [1] = Aqueous solubility of the compound at pH 7.4
# [2] = target: T1, P2Y purinoceptor 14 (Homo sapiens, UniProt Q15391); test: cell-based
# T1 sequence (Q15391 whole entry): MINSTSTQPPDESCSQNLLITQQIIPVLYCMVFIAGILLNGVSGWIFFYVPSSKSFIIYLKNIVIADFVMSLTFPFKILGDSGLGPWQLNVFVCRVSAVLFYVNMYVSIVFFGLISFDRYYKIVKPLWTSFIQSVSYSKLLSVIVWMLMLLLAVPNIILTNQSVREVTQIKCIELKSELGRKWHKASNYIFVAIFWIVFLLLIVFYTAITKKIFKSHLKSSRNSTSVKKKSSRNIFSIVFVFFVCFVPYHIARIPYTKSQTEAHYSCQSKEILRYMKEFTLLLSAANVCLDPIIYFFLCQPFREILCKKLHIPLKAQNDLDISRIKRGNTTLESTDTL
# Description: Inhibition of fluorescent antagonist binding to human P2Y14R expressed in CHO cells preincubated for 30 mins followed by 6-amino-9-(2-carboxy-4-((6-(4-(4-(4-(4-(3-carboxy 6-(4-(trifluoromethyl)phenyl)naphthalen-1-yl)phenyl)piperidin-1-yl)butyl)-1H-1,2,3-triazol-1-yl)hexyl)carbamoyl)phenyl)-3-iminio-5-sulfo-3H-xanthene-4-sulfonate addition and measured after 30 mins by BD FACSCalibur flow cytometry analysis
# [3] = Distribution coefficient, logD of compound at pH 7.4 by HPLC analysis; type: physicochemical; conditions: octanol/water
# [4] = Aqueous solubility of the compound at pH 4
# [5] = target: T2, liver carboxylesterase (Sus scrofa, UniProt Q29550); test: Stability of the compound in aqueous medium at pH 7.4 assessed as half life in presence of porcine liver esterase; type: physicochemical; conditions: pig
# T2 sequence (Q29550 whole entry): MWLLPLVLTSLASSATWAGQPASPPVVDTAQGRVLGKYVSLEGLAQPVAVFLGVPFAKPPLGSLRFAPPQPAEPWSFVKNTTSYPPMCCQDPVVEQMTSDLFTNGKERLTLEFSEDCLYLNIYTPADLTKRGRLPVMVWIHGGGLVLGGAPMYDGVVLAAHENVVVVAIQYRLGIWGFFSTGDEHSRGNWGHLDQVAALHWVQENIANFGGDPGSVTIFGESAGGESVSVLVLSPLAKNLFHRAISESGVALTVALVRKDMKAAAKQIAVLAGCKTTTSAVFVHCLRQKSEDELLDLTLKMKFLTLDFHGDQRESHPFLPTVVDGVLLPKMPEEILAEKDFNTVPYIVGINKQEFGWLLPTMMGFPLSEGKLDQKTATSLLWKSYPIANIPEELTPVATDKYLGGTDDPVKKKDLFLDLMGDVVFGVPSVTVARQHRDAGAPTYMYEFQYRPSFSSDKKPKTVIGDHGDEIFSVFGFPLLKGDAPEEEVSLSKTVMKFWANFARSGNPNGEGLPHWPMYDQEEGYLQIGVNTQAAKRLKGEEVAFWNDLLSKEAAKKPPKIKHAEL
# [6] = target: Sigma intracellular receptor 2 (Homo sapiens, UniProt Q5BJF2); test: Inhibition of sigma 2 receptor (unknown origin) assessed as binding constant
# [7] = target: Beta-3 adrenergic receptor (Homo sapiens, UniProt P13945); test: Inhibition of adrenergic beta 3 receptor (unknown origin) assessed as binding constant
# [8] = Plasma protein binding in mouse assessed as compound remaining at 5 hrs; type: ADME, cell-free
# [9] = Plasma protein binding in rat assessed as compound remaining at 5 hrs; type: ADME, cell-free
# [10] = Plasma protein binding in human assessed as bound fraction; type: ADME, cell-free
# [11] = target: Sigma non-opioid intracellular receptor 1 (Homo sapiens, UniProt Q99720); test: Inhibition of sigma 1 receptor (unknown origin) assessed as binding constant
# [12] = target: T3, P2Y purinoceptor 14 (Mus musculus, UniProt Q9ESG6); test: Inhibition of fluorescent antagonist binding to mouse P2Y14R expressed in HEK293 cells preincubated for 30 mins followed by addition of 6-amino-9-(2-carboxy-4-((6-(4-(4-(4-(4-(3-carboxy-6-(4-(trifluoromethyl)phenyl)naphthalen-1-yl)phenyl)piperidin-1-yl)butyl)-1H-1,2,3-triazol-1-yl)hexyl)carbamoyl)phenyl)-3-iminio-5-sulfo-3H-xanthene-4-sulfonate incubated for 30 mins by BD FACSCalibur flow …; type: cell-based
# T3 sequence (Q9ESG6 whole entry): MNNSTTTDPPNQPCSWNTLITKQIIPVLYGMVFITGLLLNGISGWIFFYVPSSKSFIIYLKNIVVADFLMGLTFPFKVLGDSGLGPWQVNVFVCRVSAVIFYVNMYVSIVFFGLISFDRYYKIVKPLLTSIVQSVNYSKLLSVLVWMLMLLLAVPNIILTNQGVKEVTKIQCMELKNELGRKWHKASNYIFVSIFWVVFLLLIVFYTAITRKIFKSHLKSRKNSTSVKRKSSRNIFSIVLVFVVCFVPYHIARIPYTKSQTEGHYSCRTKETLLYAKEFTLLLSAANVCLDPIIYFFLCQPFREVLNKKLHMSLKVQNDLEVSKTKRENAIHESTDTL
# [13] = target: Translocator protein (Homo sapiens, UniProt P30536); test: Inhibition of TSPO receptor (unknown origin) assessed as binding constant
# [14] = target: D(3) dopamine receptor (Homo sapiens, UniProt P35462); test: Inhibition of dopamine D3 receptor (unknown origin) assessed as binding constant
# [15] = target: D(1B) dopamine receptor (Homo sapiens, UniProt P21918); test: Inhibition of dopamine D5 receptor (unknown origin) assessed as binding constant
# Sequence of D(1B) dopamine receptor (P21918 whole entry): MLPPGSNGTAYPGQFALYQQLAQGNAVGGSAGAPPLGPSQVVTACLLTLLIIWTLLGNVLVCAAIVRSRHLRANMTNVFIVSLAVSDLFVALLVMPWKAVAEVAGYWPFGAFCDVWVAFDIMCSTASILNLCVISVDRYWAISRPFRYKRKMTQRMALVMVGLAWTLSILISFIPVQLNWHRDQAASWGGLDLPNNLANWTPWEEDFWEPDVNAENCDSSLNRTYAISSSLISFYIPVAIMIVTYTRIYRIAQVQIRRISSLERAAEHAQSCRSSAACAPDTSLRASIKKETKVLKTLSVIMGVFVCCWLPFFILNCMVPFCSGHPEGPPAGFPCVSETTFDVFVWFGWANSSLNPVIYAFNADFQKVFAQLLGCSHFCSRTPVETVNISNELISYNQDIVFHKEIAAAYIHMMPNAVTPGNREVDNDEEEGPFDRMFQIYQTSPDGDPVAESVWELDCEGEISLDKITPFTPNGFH
# Sequence of Translocator protein (P30536 whole entry): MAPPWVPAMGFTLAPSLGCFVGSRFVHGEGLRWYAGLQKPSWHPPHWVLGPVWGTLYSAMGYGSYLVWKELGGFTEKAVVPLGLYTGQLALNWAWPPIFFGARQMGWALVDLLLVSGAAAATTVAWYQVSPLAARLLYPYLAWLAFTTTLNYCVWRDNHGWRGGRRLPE
# Sequence of Sigma intracellular receptor 2 (Q5BJF2 whole entry): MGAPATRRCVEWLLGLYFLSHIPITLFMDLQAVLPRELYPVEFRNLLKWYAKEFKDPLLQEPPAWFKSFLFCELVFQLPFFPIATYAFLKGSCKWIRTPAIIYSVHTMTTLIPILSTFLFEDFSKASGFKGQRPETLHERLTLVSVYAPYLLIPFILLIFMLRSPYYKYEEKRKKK
# Sequence of Beta-3 adrenergic receptor (P13945 whole entry): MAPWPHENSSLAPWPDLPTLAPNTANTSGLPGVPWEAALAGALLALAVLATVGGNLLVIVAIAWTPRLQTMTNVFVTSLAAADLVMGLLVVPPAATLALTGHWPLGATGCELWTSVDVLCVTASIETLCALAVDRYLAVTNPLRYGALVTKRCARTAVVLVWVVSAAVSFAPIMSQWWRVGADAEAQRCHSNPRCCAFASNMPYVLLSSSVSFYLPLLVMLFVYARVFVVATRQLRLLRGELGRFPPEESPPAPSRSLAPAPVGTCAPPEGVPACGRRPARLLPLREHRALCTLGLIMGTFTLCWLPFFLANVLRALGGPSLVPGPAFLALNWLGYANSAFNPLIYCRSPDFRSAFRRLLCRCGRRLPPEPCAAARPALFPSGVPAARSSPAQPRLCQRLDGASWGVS
# Sequence of Sigma non-opioid intracellular receptor 1 (Q99720 whole entry): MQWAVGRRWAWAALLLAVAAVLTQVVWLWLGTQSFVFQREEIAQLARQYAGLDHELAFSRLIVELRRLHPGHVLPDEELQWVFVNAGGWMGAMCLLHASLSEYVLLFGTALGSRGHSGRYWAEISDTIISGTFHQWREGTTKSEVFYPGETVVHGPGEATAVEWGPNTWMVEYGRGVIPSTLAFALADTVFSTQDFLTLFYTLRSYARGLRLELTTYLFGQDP
# Sequence of D(3) dopamine receptor (P35462 whole entry): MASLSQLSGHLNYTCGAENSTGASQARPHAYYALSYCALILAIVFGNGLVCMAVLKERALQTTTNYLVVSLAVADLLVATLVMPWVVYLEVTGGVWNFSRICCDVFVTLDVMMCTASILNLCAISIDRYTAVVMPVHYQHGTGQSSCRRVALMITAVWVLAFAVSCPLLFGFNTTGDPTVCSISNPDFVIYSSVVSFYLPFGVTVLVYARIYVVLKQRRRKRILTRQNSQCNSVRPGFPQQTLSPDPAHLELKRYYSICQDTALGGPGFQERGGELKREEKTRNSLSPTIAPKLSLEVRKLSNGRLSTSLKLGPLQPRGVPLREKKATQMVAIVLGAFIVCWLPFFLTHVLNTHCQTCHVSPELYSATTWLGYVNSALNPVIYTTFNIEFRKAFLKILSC
structure (smiles),measurement,setting,value
COC1(c2ccc(-c3cc(C(=O)O)cc4cc(-c5ccc(C(F)(F)F)cc5)ccc34)cc2)[C@H]2CC[C@H]1CNC2 (stereo not given in full),solubility,[1]; aqueous medium,0.88 µg/mL
same,IC50,[2],44.6 nM
same,logD,[3]; read-out: logD,1.4
same,solubility,[4]; buffer,1.81 µg/mL
O=C(O)c1cc(-c2ccc([C@@]3(O)C[C@H]4CC[C@@H](C3)N4)cc2)c2ccc(-c3ccc(C(F)(F)F)cc3)cc2c1,logD,[3]; read-out: logD,1.2
CC(=O)N1C[C@@H]2C[C@H]1C[C@H]2c1ccc(-c2cc(C(=O)O)cc3cc(-c4ccc(C(F)(F)F)cc4)ccc23)cc1 (racemic),solubility,[1]; buffer,2.53 µg/mL
same,logD,[3]; read-out: logD,0.92
same,solubility,[4]; buffer,0.13 µg/mL
N[C@H]1C[C@@H](C(=O)O)[C@H](c2ccc(-c3cc(C(=O)O)cc4cc(-c5ccc(C(F)(F)F)cc5)ccc34)cc2)C1,logD,[3]; read-out: logD,-0.57
CC(=O)N1C[C@@H]2C[C@H]1C[C@H]2c1ccc(-c2cc(C(=O)OCC(=O)N(C)C)cc3cc(-c4ccc(C(F)(F)F)cc4)ccc23)cc1,half-life,[5],> 72 h
CC1CC(c2ccc(-c3cc(C(=O)O)cc4cc(-c5ccc(C(F)(F)F)cc5)ccc34)cc2)CCN1 (stereo not given),logD,[3]; read-out: logD,2.1
N[C@H]1C[C@@H](C(=O)O)C[C@@H]1c1ccc(-c2cc(C(=O)O)cc3cc(-c4ccc(C(F)(F)F)cc4)ccc23)cc1,IC50,[2],269 nM
N[C@@H]1C[C@H](CO)C[C@H]1c1ccc(-c2cc(C(=O)O)cc3cc(-c4ccc(C(F)(F)F)cc4)ccc23)cc1,logD,[3]; read-out: logD,1.1
O=C(O)c1cc(-c2ccc(C3CC4CCC3CN4)cc2)c2ccc(-c3ccc(C(F)(F)F)cc3)cc2c1 (stereo not given),IC50,[2],25.1 nM
same,logD,[3]; read-out: logD,1.7
O=C(O)c1cc(-c2ccc(C34CCNCC3C4)cc2)c2ccc(-c3ccc(C(F)(F)F)cc3)cc2c1 (racemic),solubility,[1]; buffer,0.17 µg/mL
same,IC50,[2],45.5 nM
same,logD,[3]; read-out: logD,2.4
same,solubility,[4]; aqueous medium,1.32 µg/mL
N[C@@H]1C[C@H](C(=O)O)[C@@H](c2ccc(-c3cc(C(=O)O)cc4cc(-c5ccc(C(F)(F)F)cc5)ccc34)cc2)C1,Ki,[6],2000 nM
O=C(O)c1cc(-c2ccc([C@]3(O)C[C@H]4CC[C@@H]3CN4)cc2)c2ccc(-c3ccc(C(F)(F)F)cc3)cc2c1 (racemic),IC50,[2],114 nM
same,logD,[3]; read-out: logD,0.74
O=C(O)c1cc(-c2ccc(C34CCN(CC3)CC4)cc2)c2ccc(-c3ccc(C(F)(F)F)cc3)cc2c1,solubility,[1]; buffer,0.55 µg/mL
same,logD,[3]; read-out: logD,4.2
same,solubility,[4]; buffer,1.5 µg/mL
CC(=O)N1C[C@H]2C[C@@H]1C[C@@H]2c1ccc(-c2cc(C(=O)O)cc3cc(-c4ccc(C(F)(F)F)cc4)ccc23)cc1,IC50,[2],99.3 nM
same,logD,[3]; read-out: logD,0.92
O=C(O)c1cc(-c2ccc([C@H]3C[C@H]4C[C@@H]3CN4)cc2)c2ccc(-c3ccc(C(F)(F)F)cc3)cc2c1 (racemic),solubility,[1]; buffer,0.47 µg/mL
same,Ki,[6],650 nM
same,Ki,[7],> 1000 nM
same,logD,[3]; read-out: logD,2
same,solubility,[4]; buffer,2.73 µg/mL
CN(C)C(=O)COC(=O)c1cc(-c2ccc([C@@H]3C[C@@H]4C[C@H]3NC4=O)cc2)c2ccc(-c3ccc(C(F)(F)F)cc3)cc2c1,Fu,[8],0%
same,half-life,[5],> 72 h
same,Fu,[9],0%
same,PPB,[10],99.79%
same,Ki,[11],6900 nM
O=C(O)c1cc(-c2ccc(C34CCNCC3C4(F)F)cc2)c2ccc(-c3ccc(C(F)(F)F)cc3)cc2c1 (racemic),logD,[3]; read-out: logD,2.7
CCOC(=O)N1C[C@H]2C[C@@H]1C[C@@H]2c1ccc(-c2cc(C(=O)O)cc3cc(-c4ccc(C(F)(F)F)cc4)ccc23)cc1,IC50,[2],442 nM
O=C(O)c1cc(-c2ccc(C3(O)[C@H]4CC[C@H]3CNC4)cc2)c2ccc(-c3ccc(C(F)(F)F)cc3)cc2c1 (stereo not given in full),solubility,[1]; buffer,0.54 µg/mL
same,Ki,[6],1700 nM
same,IC50,[12],15.5 nM
same,IC50,[2],21.3 nM
same,logD,[3]; read-out: logD,1.2
same,solubility,[4]; buffer,2.32 µg/mL
same,Ki,[11],1700 nM
O=C(O)c1cc(-c2ccc([C@@]3(O)C[C@H]4CC[C@@H]3CN4)cc2)c2ccc(-c3ccc(C(F)(F)F)cc3)cc2c1 (racemic),IC50,[2],15.6 nM
same,logD,[3]; read-out: logD,0.96
O=C(O)c1cc(-c2ccc(C3CC4CCC(C3)N4)cc2)c2ccc(-c3ccc(C(F)(F)F)cc3)cc2c1 (stereo not given),solubility,[1]; buffer,0.13 µg/mL
same,IC50,[2],38.3 nM
same,logD,[3]; read-out: logD,2.3
same,solubility,[4]; buffer,0.38 µg/mL
N[C@@H]1C[C@H](C(=O)O)C[C@H]1c1ccc(-c2cc(C(=O)O)cc3cc(-c4ccc(C(F)(F)F)cc4)ccc23)cc1,logD,[3]; read-out: logD,-0.48
O=C(O)c1cc(-c2ccc(C3=CC4CCC(C3)N4)cc2)c2ccc(-c3ccc(C(F)(F)F)cc3)cc2c1 (racemic),logD,[3]; read-out: logD,2.3
O=C(O)c1cc(-c2ccc([C@@H]3C[C@@H]4C[C@H]3C(=O)N4)cc2)c2ccc(-c3ccc(C(F)(F)F)cc3)cc2c1,Ki,[6],1900 nM
same,Ki,[7],> 1000 nM
same,logD,[3]; read-out: logD,0.49
same,Ki,[11],3200 nM
CN(C)C(=O)COC(=O)c1cc(-c2ccc([C@@H]3C[C@@H]4C[C@H]3C(=O)N4)cc2)c2ccc(-c3ccc(C(F)(F)F)cc3)cc2c1,half-life,[5],> 72 h
O=C(O)c1cc(-c2ccc(C3(O)[C@H]4CC[C@H]3CN(Cc3ccccc3)C4)cc2)c2ccc(-c3ccc(C(F)(F)F)cc3)cc2c1 (stereo not given in full),solubility,[1]; buffer,0.14 µg/mL
same,logD,[3]; read-out: logD,3.3
same,solubility,[4]; buffer,0.48 µg/mL
N[C@H]1C[C@@H](CO)[C@H](c2ccc(-c3cc(C(=O)O)cc4cc(-c5ccc(C(F)(F)F)cc5)ccc34)cc2)C1,Ki,[6],1100 nM
same,Ki,[7],> 1000 nM
same,logD,[3]; read-out: logD,0.96
same,Ki,[13],1800 nM
same,Ki,[14],330 nM
same,Ki,[11],1300 nM
O=C(O)c1cc(-c2ccc([C@H]3CCN[C@@H]4C[C@H]34)cc2)c2ccc(-c3ccc(C(F)(F)F)cc3)cc2c1 (relative stereo),solubility,[1]; buffer,0.51 µg/mL
same,logD,[3]; read-out: logD,2.6
same,solubility,[4]; aqueous medium,0.1 µg/mL
CC(=O)N1C[C@@H]2C[C@H]1C[C@H]2c1ccc(-c2cc(C(=O)O)cc3cc(-c4ccc(C(F)(F)F)cc4)ccc23)cc1,Ki,[15],> 1000 nM
same,Ki,[6],1700 nM
same,IC50,[2],64.1 nM
same,logD,[3],0.55
same,Ki,[11],4200 nM
O=C(O)c1cc(-c2ccc(C3[C@H]4CC[C@H]3CNC4)cc2)c2ccc(-c3ccc(C(F)(F)F)cc3)cc2c1 (stereo not given in full),solubility,[1]; buffer,0.16 µg/mL
same,IC50,[2],696 nM
same,logD,[3]; read-out: logD,3
same,solubility,[4]; buffer,0.32 µg/mL
O=C(O)c1cc(-c2ccc([C@@H]3C[C@@H]4C[C@H]3CN4)cc2)c2ccc(-c3ccc(C(F)(F)F)cc3)cc2c1,Ki,[15],> 1000 nM
same,Ki,[6],1200 nM
same,IC50,[12],13.4 nM
same,Ki,[7],> 1000 nM
same,Ki,[13],1800 nM
same,Ki,[14],1000 nM
same,Ki,[11],2100 nM
CC1CNCCC1c1ccc(-c2cc(C(=O)O)cc3cc(-c4ccc(C(F)(F)F)cc4)ccc23)cc1 (stereo not given),logD,[3]; read-out: logD,2.8
O=C(O)c1cc(-c2ccc([C@@H]3C[C@H]4CN[C@@H]3C4)cc2)c2ccc(-c3ccc(C(F)(F)F)cc3)cc2c1,Ki,[6],1000 nM
same,IC50,[12],90.9 nM
same,logD,[3]; read-out: logD,2.1
O=C(O)c1cc(-c2ccc([C@@H]3CCN[C@@H]4C[C@@H]43)cc2)c2ccc(-c3ccc(C(F)(F)F)cc3)cc2c1 (racemic),solubility,[1]; buffer,0.05 µg/mL
same,logD,[3]; read-out: logD,1.8
same,solubility,[4]; buffer,0.24 µg/mL
O=C(O)c1cc(-c2ccc([C@H]3C[C@H]4C[C@@H]3NC4=O)cc2)c2ccc(-c3ccc(C(F)(F)F)cc3)cc2c1,Ki,[15],> 1000 nM
same,Ki,[6],1400 nM
same,Ki,[7],> 1000 nM
same,Ki,[13],1400 nM
same,Ki,[11],2600 nM
N[C@@H]1C[C@H](CO)[C@@H](c2ccc(-c3cc(C(=O)O)cc4cc(-c5ccc(C(F)(F)F)cc5)ccc34)cc2)C1,Ki,[6],1000 nM
